Test results as given in patent US20100021392A1, “Vapor-phase application of spinosyn for the control of pest, and formulations and products utilizing the same” (priority 2006, published 2010).

Columns and labels:
[1] = at 25° C.; cited from earlier work
[2] = Evaporation of liquid formulation from bottle with ceramic wick on diffuser; type: physicochemical; settings: equal to 1 gram of mixture, diffuser 125°-150° C.
Experimental: PET plastic bottles were then each filled with 24 grams of the above formulation. A plastic insert and ceramic wick were then placed in the opening of the bottle and the bottle was screwed onto a common diffuser. The diffuser was operated at a temperature ranging from 125°-150° C. […] The remainder of the mixture in the bottle was then analyzed by HPLC. […] The bottle was then plugged off and stored for 12 additional hours. The bottle was again screwed onto a common diffuser, and the diffuser was operated at a temperature of 125°-150° C.

[3] = Evaporation test of spinosad from impregnated paper mats on mat diffusers (HPLC); type: physicochemical; settings: Example 1 mat, initial 80 mgs per mat; for Percentage of Spinosad Evaporated: 8 h
Experimental: Paper mats having dimensions of 35 mm (length)×21.5 mm (width)×2.5 mm (thickness) were then gradually impregnated with 0.84-1.70 grams of the above upper phase mixture (depending on its content in spinosad) so as to have approximately 80 mgs of pure spinosad per mat. The mats were left at a temperature of approximately 30° C. for 3 hours during which time most of the ethyl alcohol was evaporated. Next the mats were closed within foil comprising metallized polyethylene terepthalate PET 12 μm/adhesive/PET 35 μm. The mats were allowed to rest for 24 hours to allow for complete spread of the liquid material within the paper. Evaporation tests were then run as follows:
The foil was opened and a mat was removed. The mat was checked by HPLC to confirm its spinosad content. As was theoretically expected, 80 mgs of pure spinosad per mat were found. Four mats of this batch were then placed on common mat diffusers having a temperature ranging from 130° C. to 160° C. The amount of spinosad remaining on the mat was checked after each of 2, 4, and 8 hours of diffuser operation.
The foil was opened and a mat was removed. The mat was checked by HPLC to confirm the content of spinosad. As was theoretically expected, 11 mgs of pure spinosad per mat were found. Four mats were then placed on common mat diffusers having a temperature ranging from 130° C. to 160° C. The amount of spinosad remaining on the mat was checked after each of 2, 4, and 8 hours of operation.
The foil was opened and a mat was removed. The mat was checked by HPLC to confirm the content of spinosad. As was theoretically expected, 10 mgs of pure spinosad per mat was found. Four mats were then placed on common mat diffusers having a temperature ranging from 130° C. to 160° C. The amount of spinosad remaining on the mat was checked after each of 2, 4, and 8 hours of operation.

fish = settings: in vivo; cited from earlier work
mammals [4] = settings: cited from earlier work
mammals [5] = settings: in vivo; cited from earlier work
birds = settings: in vivo; cited from earlier work

CC[C@H]1CCC[C@H](O[C@H]2CC[C@H](N(C)C)[C@@H](C)O2)[C@@H](C)C(=O)C2=C[C@@H]3[C@@H](C=C[C@@H]4C[C@@H](O[C@@H]5O[C@@H](C)[C@H](OC)[C@@H](OC)[C@H]5OC)C[C@@H]34)[C@@H]2CC(=O)O1 [spinosyn A]
vapor pressure [1]: 2.4 ×10^−10 mmHg

Spinosad
pure spinosad evaporated after 8 hours [2]: 20 mgs | Percentage of Spinosad Evaporated ([3]; diffuser temperature 130° C.): 75% | Percentage of Spinosad Evaporated ([3]; diffuser temperature 140° C.): 85% | Percentage of Spinosad Evaporated ([3]; diffuser temperature 160° C.): 98% | Quantity of Spinosad Remained on mat after 8 h of operation ([3]; diffuser temperature 130° C.): 20 mgs | Quantity of Spinosad Remained on mat after 8 h of operation ([3]; diffuser temperature 140° C.): 12 mgs | Quantity of Spinosad Remained on mat after 8 h of operation ([3]; diffuser temperature 160° C.): 2 mgs | toxicity to fish (fish): only slightly toxic | chronic toxicology findings (mammals [4]): not carcinogenic, teratogenic, mutagenic, or neurotoxic | toxicity to mammals (mammals [5]): relatively low | toxicity to birds (birds): relatively low
